Experimental data as given in publication PMC7605558 (bioRxiv, 2020).
Read-outs that look alike come from different tables or passages of the source.

Legend:
SARS-CoV-2 M^pro = conditions: cited from earlier work
HCoV-229E [1] = conditions: read-out: EC50 against HCoV-229E; cited from earlier work
SARS-CoV M^pro [2] = biological target: T1, SARS-CoV M^pro (Severe acute respiratory syndrome coronavirus, UniProt P0C6X7); conditions: cited from earlier work
HCoV-229E [3] = assay: microbe, parasite or virus in culture; assay type: cell-based; conditions: Human coronavirus 229E, read-out: HCoV-229E (EC50, μM)
HCoV-OC43 M^pro [4] = biological target: T2, HCoV-OC43 M^pro (Human coronavirus OC43, UniProt P0C6X6); assay type: binding
HCoV-NL63 = assay: microbe, parasite or virus in culture; assay type: cell-based; conditions: Human coronavirus NL63, read-out: HCoV-NL63 (EC50, μM)
MERS-CoV M^pro [5] = biological target: T3, MERS-CoV M^pro (Middle East respiratory syndrome-related coronavirus, UniProt K9N7C7); assay: biochemical
SARS-CoV M^pro [6] = biological target: T1, SARS-CoV M^pro; assay: biochemical
SARS-CoV = assay: microbe, parasite or virus in culture; assay type: cell-based; conditions: Severe acute respiratory syndrome coronavirus, Vero 76, 96 h, read-out: SARS-CoV (EC50, μM)
HCoV-OC43 M^pro [7] = biological target: T2, HCoV-OC43 M^pro; assay: biochemical
SARS-CoV M^pro [8] = biological target: T1, SARS-CoV M^pro; assay type: binding
SARS-CoV-2 = conditions: read-out: SARS-CoV-2 (EC50, μM), cellular antiviral activity; CPE assay; cited from earlier work
SARS-CoV-2 pseudovirus = assay type: cell-based
HCoV-OC43 = assay: Combination therapy with remdesivir in HCoV-OC43 CPE assay; assay type: cell-based; conditions: combination ratios 8:1 to 1:8
MERS-CoV M^pro [9] = biological target: T3, MERS-CoV M^pro; assay type: binding

T3 sequence (K9N7C7 3248-3553 limits assumed): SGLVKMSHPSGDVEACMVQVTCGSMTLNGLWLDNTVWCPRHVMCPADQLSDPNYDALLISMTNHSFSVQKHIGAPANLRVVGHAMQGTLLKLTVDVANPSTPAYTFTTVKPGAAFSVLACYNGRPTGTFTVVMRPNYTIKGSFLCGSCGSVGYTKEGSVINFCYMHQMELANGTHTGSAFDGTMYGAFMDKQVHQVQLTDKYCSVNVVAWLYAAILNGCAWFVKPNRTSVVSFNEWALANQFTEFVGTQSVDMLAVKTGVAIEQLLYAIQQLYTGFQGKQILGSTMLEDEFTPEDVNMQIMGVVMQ
T2 sequence (P0C6X6 3247-3549 limits assumed): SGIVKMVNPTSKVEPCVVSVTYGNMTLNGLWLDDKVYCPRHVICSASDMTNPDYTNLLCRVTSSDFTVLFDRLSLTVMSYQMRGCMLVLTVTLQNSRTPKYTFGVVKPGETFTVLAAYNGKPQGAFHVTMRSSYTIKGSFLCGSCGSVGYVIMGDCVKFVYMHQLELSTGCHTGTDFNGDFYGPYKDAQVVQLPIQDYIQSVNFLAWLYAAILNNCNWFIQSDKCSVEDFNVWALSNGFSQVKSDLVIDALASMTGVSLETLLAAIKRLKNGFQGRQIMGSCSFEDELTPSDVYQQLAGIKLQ

## CCOC(=O)/C=C/[C@H](C[C@@H]1CCNC1=O)NC(=O)[C@@H](CC(=O)[C@@H](NC(=O)c1cc(C)on1)C(C)C)Cc1ccc(F)cc1 [rupintrivir]
SARS-CoV-2 M^pro
  inhibition of SARS-CoV-2 M^pro: failed to inhibit
HCoV-229E [1]
  EC50: 300 nM
SARS-CoV M^pro [2]
  inhibition of SARS-CoV M^pro: failed to inhibit

## CCC(CC)COC(=O)[C@H](C)N[P@](=O)(OC[C@H]1O[C@@](C#N)(c2ccc3c(N)ncnn23)[C@H](O)[C@@H]1O)Oc1ccccc1 [remdesivir]
HCoV-229E [3]
  EC50: 0.03 µM
HCoV-OC43 M^pro [4]
  HCoV-OC43 M^pro (ΔTm, °C): 0.00 ± 0.02 °C
  effect on HCoV-OC43 M^pro stability (Tm): no effect
HCoV-NL63
  EC50: 0.63 ± 0.041 µM

## CC(C)(C)NC(=O)N[C@H](C(=O)N1C[C@H]2[C@@H]([C@H]1C(=O)NC(CC1CCC1)C(=O)C(N)=O)C2(C)C)C(C)(C)C (stereo partly drawn) [boceprevir]
HCoV-229E [3]
  EC50: 14.1 ± 1.5 µM
SARS-CoV-2 M^pro; read-out: IC50 against SARS-CoV-2 M^pro, enzymatic assay
  IC50: […]
HCoV-OC43 M^pro [4]
  HCoV-OC43 M^pro (ΔTm, °C): 1.02 ± 0.05 °C
MERS-CoV M^pro [5]
  IC50: 10400 nM
  Ki: 1650 ± 120 nM
SARS-CoV M^pro [6]
  IC50: 6630 nM
SARS-CoV M^pro [6]; KI against SARS-CoV M^pro
  Ki: 1430 nM
HCoV-NL63
  EC50: 16.9 ± 5.87 µM
SARS-CoV
  EC50: 54.2 ± 7.76 µM
HCoV-OC43 M^pro [7]
  IC50: 9000 nM
  Ki: 2290 nM
SARS-CoV M^pro [8]
  SARS-CoV M^pro (ΔTm, °C): 3.94 ± 0.13 °C
SARS-CoV-2
  EC50: 1.31 ± 0.58 µM
SARS-CoV-2 pseudovirus
  effect on cathepsin L-mediated SARS-CoV-2 pseudovirus entry: no effect
HCoV-OC43
  antiviral effect in combination with remdesivir (combination indices): additive antiviral effect
MERS-CoV M^pro [9]
  MERS-CoV M^pro (ΔTm, °C): 2.46 ± 0.07 °C

## CCOC(=O)[C@H]1O[C@@H]1C(=O)N[C@@H](CC(C)C)C(=O)NCCC(C)C [E-64d]
SARS-CoV-2 pseudovirus; read-out: IC50 of SARS-CoV-2 pseudovirus entry
  IC50: 910 ± 100 nM
